{"source": "patent US7598412B2", "about": "“Modulators of ATP-binding cassette transporters” (Vertex Pharmaceuticals Incorporated, priority 2003, dated 2009)", "test_system": "cAMP levels in FRT cells", "assay": "Tropix assay for measurement of cAMP in FRT cells", "type": "cell-based, rat", "conditions": "n=4; for cAMP generated, average % of cAMP produced by 20 μM of forskolin: 15 minutes incubation", "method": "In the following example, the effect on cAMP levels by three structurally similar compounds from Table 1 were determined using the cAMP levels from 20 μM forskolin as the normalized reference measure.\nThe level of cAMP in FRT cells following 0.5 μM forskolin or test compound application was determined using a commercially available chemiluminiscent immunoassay system for mammalian cells called Tropix® (Applied Biosystems, Bedford, Mass.). Briefly, FRT cells were incubated for 15 minutes with a test compound in the presence and absence of 0.5 μM forskolin. The compounds were aspirated and the cells were then lysed and transferred along with the lysis buffer to a 96-well Tropix® ELISA plate. A cAMP-Alk Phos conjugate is then added to the assay plate, followed by the addition of cAMP anti-body. After several wash and aspiration steps, Sapphire blue II solution is added and the […], and the cAMP concentrations were determined using a cAMP standard curve that was present in each plate.", "key": {"[1]": {"conditions": "compound in the presence of 0.5 μM forskolin, FRT cells"}}, "note": "Where “and” joins values, the source holds several entries; their conditions need not be identical. Identical values can stand only once.", "data": [{"smiles": "COc1ccc(C(C)(C)CNC(=O)c2cc3ccccc3o2)cc1OC", "note": "[Compound 34, N-(2-(3,4-dimethoxyphenyl)-2-methylpropyl)benzofuran-2-carboxamide]", "values": [{"measurement": "cAMP generated, average % of cAMP produced by 20 μM of forskolin", "setting": "compound alone, FRT cells", "value": "24.4±1.1", "unit": "%"}, {"measurement": "change of cAMP compared with the DMSO control", "setting": "compound alone", "value": "not a significant increase"}, {"measurement": "cAMP generated, average % of cAMP produced by 20 μM of forskolin", "setting": "[1]", "value": "61.5±1.8", "unit": "%"}, {"measurement": "change of cAMP compared with the 0.5 μM forskolin control", "setting": "compound in the presence of 0.5 μM forskolin", "value": "significant increase"}]}, {"smiles": "COc1ccc(C2(CNC(=O)c3cc4ccccc4o3)CCCC2)cc1OC", "note": "[Compound 7, N-((1-(3,4-dimethoxyphenyl)-cyclopentyl)methyl)benzofuran-2-carboxamide]", "values": [{"measurement": "cAMP generated, average % of cAMP produced by 20 μM of forskolin", "setting": "compound alone, FRT cells", "value": "40.3±3.5", "unit": "%"}, {"measurement": "cAMP generated, average % of cAMP produced by 20 μM of forskolin", "setting": "[1]", "value": "92.3±2.7", "unit": "%"}]}, {"smiles": "C=C[C@@]1(C)CC(=O)[C@]2(O)[C@@]3(C)[C@@H](O)CCC(C)(C)[C@@H]3[C@H](O)[C@H](OC(C)=O)[C@@]2(C)O1", "note": "[forskolin, reference compound]", "values": [{"measurement": "cAMP of the 0.5 μM forskolin control, % of 20 μM forskolin", "setting": "0.5 μM forskolin alone, FRT cells", "value": "45.9±3.0% and 32.2±3.2%"}]}]}
